Test results reported in a melting point compilation (Tetko et al.; mined from patent text by program, amines drawn as free bases though some values may be those of a salt).

Row | Structure (SMILES) | melting point
1 | N#Cc1cccc(C2C3=C(CCS3)NC3=C2SCC3)c1 | 248 °C
2 | COc1cn(-c2ccc(C#CC3CC3)cc2F)nc(-c2ccnn2-c2ccccc2)c1=O | 145 to 146 °C
3 | Cc1ccc2c3c(ccc2n1)OC[C@H](CN1CCN(c2ccc4cc(Br)ccc4n2)CC1)O3 | 153 to 154 °C
4 | COc1ccc(N2C(=O)O[C@H](COC(=O)c3ccc([N+](=O)[O-])cc3)[C@@H]2C)cc1 | 138 to 140 °C
5 | CC(c1ccc(I)cc1)C(O)(Cn1cncn1)c1ccc(F)cc1F (centres undefined) | 169 to 171 °C
6 | CCOC(=O)c1cc(C(=O)OC)c(=O)oc1C | 94 to 96 °C
7 | COc1ccc2c(c1OC)C=NCN2CCC(=O)O | 226 to 228 °C
8 | Clc1nnc(Cc2ccncc2)c2ccccc12 | 116 to 119 °C
9 | CCOC1c2ccccc2-c2[nH]c(=O)c(=O)[nH]c21 (centres undefined) | > 300 °C
10 | Cc1nn2cccnc2c1C#N | 179 to 181 °C
11 | COc1ccc(Nc2ncc3cc4ccccc4n3n2)cc1 | 197 to 200 °C
12 | COc1cc(Nc2nccc(Nc3ccccc3)n2)cc(OC)c1OC | 186 °C
13 | Clc1cc2c(cc1Cn1ccnc1-c1ccccc1)OCO2 | 163 °C
14 | CCOC(=O)CNc1ccc2ncccc2c1 | 122 to 123 °C
15 | COc1cc2c(=O)c(C(N)=O)c[nH]c2cc1F | > 300 °C
16 | CN1CC(=O)C(C#N)=C1N | 300 °C
17 | CCOCc1cc2cccc(OC)c2oc1=O | 131 to 133 °C
18 | Cc1scc(-c2ccccc2)c1N=C1NCCN1 | 140 to 141 °C
19 | CCCNC(=O)C1(O)CC(O)C2OC(C)(C)OC2C1 (centres undefined) | 85 to 86 °C
20 | Fc1cccc(F)c1-c1ncc(-c2ccc(Br)cc2)nn1 | 180 to 181 °C
21 | C#CCOC(=O)Cc1c(C)nn(-c2cnccc2C)c1-c1ccccc1 | 106 °C
22 | Cc1[nH]c(C(C)(C)C)nc1CO | 196 °C
23 | CN(C)C=CC(=O)c1ccc2ccccc2c1 | 100 to 101 °C
24 | CCN(CC)CCC(=O)NC1c2ccccc2-c2[nH]c(=O)c3nccn3c21 (centres undefined) | 260 °C
25 | O=C(O)C1=Cc2cc(Cl)c(Sc3ccc(Cl)cc3)cc2OC1C(F)(F)F (centres undefined) | 252 to 253 °C

Row | Structure (SMILES) | melting point
26 | CCOC(=O)c1cc(=O)c2cc(OCC(O)COc3ccc(C#N)cc3)ccc2o1 (centres undefined) | 150 to 152 °C
27 | CCC(C)C(=O)c1nc(C)nc2c1c(C)c(C)n2-c1c(C)cc(C)cc1C (centres undefined) | 133 to 135 °C
28 | O=C(O)CCCCCCCCCCCNC(=O)CCCCCCCCCCI | 107 to 110 °C
29 | CC(C)(C)C(=O)COc1ccc(-c2ccc(Cl)cc2)cc1 | 90 °C
30 | CN(C)CCCC1(C)CCc2cccc(O)c2O1 (centres undefined) | 127 to 133 °C
31 | OCc1cccc(/C=C/c2ccc3ccc(Cl)cc3n2)c1 | 141 °C
32 | CC(C)(C)c1ccc(-c2nnc(-c3ccc(C(=O)O)cc3[N+](=O)[O-])o2)cc1 | 233 to 235 °C
33 | Cc1ncc(C(=O)NCc2cc(C(F)(F)F)cc(C(F)(F)F)c2)c(-c2ccccc2)n1 | 188 to 190 °C
34 | Oc1ccc2c(-c3ccc4c(Br)c(O)ccc4c3)noc2c1 | 275 to 277 °C
35 | NC(=O)C1CCN(c2ccncc2Cl)CC1 | 210 to 212 °C
36 | COC(=O)CCc1ccc(C#CC2(O)CN3CCC2CC3)c(CO)c1 (centres undefined) | 35.8 °C
37 | CN(Cc1cnc(Cl)s1)C(=N)N[N+](=O)[O-] | 116 to 117 °C
38 | Cc1ccc(-c2ccc(S(C)(=O)=O)cc2)n1-c1ccc(-c2ccsc2)cc1 | 187 to 188 °C
39 | Cc1c(CC(=O)OCCO[N+](=O)[O-])cc(-c2ccc(S(C)(=O)=O)cc2)n1-c1ccccc1 | 124 to 126 °C
40 | CC(C)c1cccc(C(C)C)c1NC(=O)CC1=C(c2ccccc2)c2cc(Cl)ccc2N(C)C1 | 192 to 194 °C
41 | Cn1ncnc1COc1nc2c(cc1C1CCC1)nnn2-c1ccccc1F | 120 to 122 °C
42 | CCOC1Oc2ccc3cc(C#N)c(Cn4cncn4)cc3c2C1(C)C (centres undefined) | 128 to 129 °C
43 | O=C(NCCN1CCCCC1)c1nc(NCC(c2ccccc2)c2ccccc2)c2ncn([C@@H]3O[C@H](CO)[C@@H](O)[C@H]3O)c2n1 | 182 °C
44 | CCOc1ccccc1Sc1ccc(/C=C/C(=O)N2CCCC(C(=O)O)C2)cc1Cl (centres undefined) | 166 to 171 °C
45 | CC(C)c1nc2c(nc1C(C)C)-c1c(c(-c3ccc(C(=O)O)cc3)nn1Cc1cccnc1)CC2 | 204 to 206 °C
46 | CN1CCN(c2c(F)c(N)c3c(=O)c(C(=O)O)cn(C4CC4)c3c2F)CCC1=O | 281 to 283 °C
47 | O=C(NC1(Cc2ccccc2)CCN(Cc2ccccc2)CC1)N1CCCC1 | 126 °C
48 | Nc1cccc(Cn2c(-c3ccc(NC(=O)c4ccccc4)cc3)ccc2-c2ccccc2Cl)n1 | 196 to 198 °C
49 | COC(=O)c1[nH]cc(Cc2ccsc2)c1N | 108 to 110 °C
50 | COc1ccc(/C=C/C(=O)c2cccc(O)c2)cc1OC | 138 to 139 °C

Row | Structure (SMILES) | melting point
51 | O=c1[nH]c2cc(Cl)ccc2c(O)c1Sc1cccc(Br)c1 | 265 to 268 °C
52 | Oc1ccc(Br)c2c1CCCC2 | 83 to 85 °C
53 | CCCCN(CCCC)c1ccc(C=Cc2cc(C)c(C=CC3=C(C#N)C(=C(C#N)C#N)OC3(C)C(F)(F)F)cc2C)c(OC)c1 (centres undefined) | 205 to 207 °C
54 | Nc1c(-c2ccc(Cl)cc2)nc2ccc(F)cc2c1C(=O)O | 241 to 243 °C
55 | CCC(CC)CCc1nn(C)c2cc(C(=O)OC)ccc12 | 91 to 93 °C
56 | COc1ccc(N=C(C#Cc2ccccc2)N2CCN(Cc3ccccc3)CC2)cc1 | 104 °C
57 | COC(=O)C(C)c1ccc2c(c1)Cc1cc(OC)ccc1-2 (centres undefined) | 98.5 to 100 °C
58 | FC(F)(F)CSC1(c2cccc(OCc3ccc4ccccc4c3)c2)CCOCC1 | 76 to 78 °C
59 | CNC(=S)NCCCc1ncco1 | 43 to 45 °C
60 | COc1ccc(-c2nnc3c4ccccc4c(CCl)nn23)cc1 | 203 to 206 °C
61 | O=C(Nc1nc(C(Cl)(Cl)Cl)ns1)c1cccc([N+](=O)[O-])c1 | 198 °C
62 | CCN(C(=O)c1cc(N(C)C)ccc1[Si](C)(C)C)C(OC)C(C)(C)C (centres undefined) | 96 to 98 °C
63 | Cc1cccc(C)c1NC(=O)CN1CCN(CCC(c2ccc(F)cc2)c2ccc(F)cc2)C(C(N)=O)C1 (centres undefined) | 143 °C
64 | COc1c(Cl)ccnc1CO | 64 to 66 °C
65 | OCCOCCNCc1ccc(-c2cc3ncnc(Nc4ccc5[nH]ccc5c4)c3s2)cc1 | 111 to 119 °C
66 | Nc1nc(Cn2c(-c3ccc(Oc4cncnc4)cc3)ccc2-c2ccccc2Cl)ccc1NCCO | 78 to 82 °C
67 | CSc1nc(O)cc(-c2cccc(C#N)c2)n1 | > 220 °C
68 | O=C1NCCN1c1ccc(S(=O)(=O)Nc2cccc(Br)c2)cc1 | 184 to 185 °C
69 | CNc1nc(Nc2ccc(Cl)c(Cl)c2)ncc1NP(C)(C)=O | 258 °C
70 | Cn1nc(-c2ccc(Cl)cc2)c2cc3ccccc3cc21 | 157 to 159 °C
71 | Cc1cn(-c2ccc(NC(=O)c3ccc(C)c(C#Cc4cnc(NC5CC5)nc4)c3)cc2C(F)(F)F)cn1 | 131 to 133 °C
72 | NNc1c(Cl)c(Cl)nc(C(=O)O)c1Cl | 166 to 168 °C
73 | OC1CSC(Oc2cncc(-c3ccc(F)c(Cl)c3)c2)C(O)C1O (centres undefined) | 200 to 201 °C
74 | COC(=O)c1nn(C)nc1C(=O)O | 125 to 126 °C
